The text below walks through data of paper PMC9352027, “Targeting lipid biosynthesis pathways for hepatitis B virus cure” (PLoS ONE, 2022).

Data set [1] concerns HBV-infected HepG2-NTCP cells. Nature of the data set: Cell viability by CellTiter Glo. It counts as cell-based, human. The settings on record: three days of treatment. Here is the method:
(§1) Production of wild-type HBV virions from HepAD38 cells was performed as previously described. HepG2-NTCP cells were bulk plated on collagen coated flasks at a density of 6x10^6 cells/ T175 flask. Following a 3-day incubation at 37°C, cells were infected with genotype D (AD38) virus at […] in the presence of 4% PEG8000 and 2.5% DMSO. HepG2-NTCP cells were washed 3 times with OPTI-MEM and maintained in Dulbecco’s modified Eagle’s medium (DMEM) supplemented with 2% FBS and 2.5% DMSO for the following 4 days. HBV-infected HepG2-NTCP cells were trypsinized, resuspended in DMEM supplemented with 2% FBS and 1% DMSO, and seeded onto serially diluted small molecule inhibitors at a 0.5% final DMSO concentration (S1 Table) in 384-well collagen coated plates at a density of 20,000 cells/well for 3 additional days.
(§2) Cells were analyzed for cell viability by addition of CellTiter Glo (Promega) to the assay plates and analyzed using an Envision plate reader (Perkin Elmer). CC50 values were calculated from the fit of the dose−response curves to a four-parameter equation. All CC50 values represent geometric mean values of a minimum of four determinations.
(§3) (A) Schematic overview of the pathways involved in lipid biosynthesis, such as DNL, TG esterification and cholesterol biosynthesis. […] (B-D) HepG2-NTCP cells infected with HBV for three days were treated with selected compounds in an eight-point dose response. After three days of treatment, extracellular HBsAg and HBeAg levels as well as cell viability were measured.

Data set [2] concerns HBeAg in HBV-infected HepG2-NTCP cells. Kind of data set: microbe, parasite or virus in culture. It counts as cell-based, Hepatitis B virus genotype D (AD38). Conditions: read-out: HBeAg, EC50. Here is the method:
as §1
(§4) Cell culture supernatant (3 μL) was transferred to two 1536-well plates and HBsAg and HBeAg levels subsequently measured by HTRF (Cisbio). HBsAg was measured using Terbium conjugated (XTL-17) and D2 receptor conjugated (XTL19) anti-HBsAg antibodies, while HBeAg was measured using Terbium conjugated (GWB-F19420, Genway Biotech) and D2 receptor conjugated (GWB-24DEF, Genway Biotech) anti-HBeAg antibodies. […] was measured using an Envision plate reader at emissions of 665 nm and 615 nm. The ratio of 665/615 was used to plot compound dose response curves and EC50 values were calculated from the fit of the dose−response curves to a four-parameter equation.
as §3

For data set [3], the system named is HBsAg secretion in HBV-infected HepG2-NTCP cells. Kind of data set: microbe, parasite or virus in culture. Type of data set: cell-based, Hepatitis B virus genotype D (AD38). The settings on record: for EC50: read-out: HBsAg, EC50; for inhibition of HBsAg secretion: maximal (up to). Here is the method: as §1, §4, §3
The nature of data set [4]: Cell viability by CellTiter Glo. Type of data set: cell-based, human. Conditions: human; HBV-infected HepG2-NTCP cells, three days of treatment. The procedure:
as §1, §2, §3
On the technique in general: Cellular ATP, detected with luciferase, serves as a proxy for viable cell number.

The next data set has as its system ACC1 and ACC2. Set-up: method as in PMID 29705265, PMID 30059671. Conditions: cited from earlier work.
Setting [5] is: HBV-infected HepG2-NTCP cells, three days of treatment, extracellular.

Like-named read-outs stand apart in the source and are kept apart here.

By CC50 is commonly meant the concentration that lowers cell viability or growth by half. Read a high CC50 as better tolerance by the cells. A word on the EC50: it is the concentration that produces a half-maximal response. For `COC(=O)c1cc(Cl)c(O)c(S(=O)(=O)Nc2cc(-c3ccccc3)c(F)cc2F)c1` [ACLY Inhibitor, methyl 3-chloro-5-(N-(4,6-difluoro-[1,1'-biphenyl]-3-yl)sulfamoyl)-4-hydroxybenzoate], in data set [1], the half-maximal cytotoxic concentration (CC50) is above 10 µM. Besides, the concentration giving a half-maximal response (EC50) in data set [2] (setting [5]) and in data set [3] (setting [5]) was above 10 µM each time.
Consider `CC1=NN(c2ccc(OC(F)F)c(-c3cccnc3)c2)C(=O)C1C(=O)Nc1cccc(C(C)(F)F)c1` (stereo not shown) [ACSS2 Inhibitor, N-(3-(1,1-difluoroethyl)phenyl)-1-(4-(difluoromethoxy)-3-(pyridin-3-yl)phenyl)-3-methyl-5-oxo-4,5-dihydro-1H-pyrazole-4-carboxamide], for which the CC50 in data set [1] was above 10 µM. Besides, the EC50 in data set [2] (setting [5]) and in data set [3] (setting [5]) was above 10 µM each time.
For the molecule `C=C(C)[C@@H]1CC[C@]2(CO)CC[C@]3(C)[C@H](CC[C@@H]4[C@@]5(C)CC[C@H](O)C(C)(C)[C@@H]5CC[C@]43C)[C@@H]12` [Betulin, (1R,3aS,5aR,5bR,7aR,9S,11aR,11bR,13aR,13bR)-3a-(hydroxymethyl)-5a,5b,8,8,11a-pentamethyl-1-(prop-1-en-2-yl)icosahydro-1H-cyclopenta[a]chrysen-9-ol], the CC50 at 3 days in data set [4] is above 10 µM. For the same molecule, the 50% effective concentration (EC50) was above 10 µM in data set [2] (Hepatitis B virus, 72 h) and above 10 µM in data set [3] (Hepatitis B virus, 72 h).
Regarding `CC(C)N(C)c1nc2cc(C(=O)O)ccc2nc1-c1ccc(F)cc1` [BioE-115, 2-(4-fluorophenyl)-3-(isopropyl(methyl)amino)quinoxaline-6-carboxylic acid], the CC50 in data set [1] is above 10 µM. Also, the EC50 in data set [2] (setting [5]) and in data set [3] (setting [5]) was above 10 µM each time.
As to `O=C(O)c1ccccc1NS(=O)(=O)c1ccc(Cl)c([N+](=O)[O-])c1` [CPT2 Inhibitor, 2-((4-chloro-3-nitrophenyl)sulfonamido)benzoic acid], the CC50 in data set [1] was above 10 µM. Besides, the EC50 in data set [2] (setting [5]) and in data set [3] (setting [5]) was above 10 µM throughout.
Turning to `Nc1ncnc2c1C(=O)N(c1ccc([C@H]3CC[C@H](CC(=O)O)CC3)cc1)CCO2` [DGAT1 Inhibitor, 2-((1r,4r)-4-(4-(4-amino-5-oxo-7,8-dihydropyrimido[5,4-f][1,4]oxazepin-6(5H)-yl)phenyl)cyclohexyl)acetic acid], the EC50 in data set [2] (setting [5]) and in data set [3] (setting [5]) was above 10 µM throughout.
For the molecule `CC1(NC(=O)c2ccc3c(-c4ccccc4Cl)cn(-c4ccc(F)cc4)c3c2)CCS(=O)(=O)C1` (stereo not shown) [DGAT2 Inhibitor, 3-(2-chlorophenyl)-1-(4-fluorophenyl)-N-(3-methyl-1,1-dioxidotetrahydrothiophen-3-yl)-1H-indole-6-carboxamide], the CC50 in data set [1] was above 10 µM. Moreover, the concentration giving a half-maximal response (EC50) in data set [2] (setting [5]) and in data set [3] (setting [5]) was above 10 µM throughout.
Turning to `CCOC(=O)[C@@]1(CCCCCCOc2ccc(Cl)cc2)CO1` [Etomoxir, ethyl (R)-2-(6-(4-chlorophenoxy)hexyl)oxirane-2-carboxylate], the half-maximal cytotoxic concentration (CC50) at 3 days in data set [4] is above 10 µM. For the same molecule, the EC50 in data set [2] (Hepatitis B virus, 72 h) was above 10 µM; in data set [3] (Hepatitis B virus, 72 h), above 10 µM.
In the case of `Cc1cc(C)c(-c2[nH]c(C3CC3)nc2C)cc1C(=O)N1CC(F)(c2ccc(C#N)cc2)C1` [FASN inhibitor, 4-(1-(5-(2-cyclopropyl-4-methyl-1H-imidazol-5-yl)-2,4-dimethylbenzoyl)-3-fluoroazetidin-3-yl)benzonitrile], in data set [1], the CC50 is above 10 µM. In data set [2] (setting [5]), the EC50 is above 10 µM. For the same molecule, in data set [3] (HBV-infected HepG2-NTCP cells), the “selectivity HBsAg versus HBeAg” value was “selective for HBsAg” and the “inhibition of HBsAg secretion” value is “up to 80%”. For the same molecule, the half-maximal effective concentration (EC50) in data set [3] (setting [5]) turned out to be 0.081 µM.
As to `COc1ccccc1[C@H](Cn1c(=O)n(C(C)(C)C(=O)O)c(=O)c2c(C)c(-c3ncco3)sc21)OC1CCOCC1` [FIR, Firsocostat], in the data set with ACC1 and ACC2 (observed clinically), the liver fat reduction was ~ 30%. The DNL inhibition with ACC1 and ACC2 (partial target inhibition observed clinically) is ~ 70%.
In data set [1], `CCCCCCCCc1ccc(CC[C@](N)(CO)COP(=O)(O)O)cc1` [FTY720 (S)-phosphate, (S)-2-amino-2-(hydroxymethyl)-4-(4-octylphenyl)butyl dihydrogen phosphate] yielded a CC50 above 10 µM. The concentration giving a half-maximal response (EC50) in data set [2] (setting [5]) and in data set [3] (setting [5]) was above 10 µM throughout.
Consider `CCCCCCCCc1ccc(CCC(N)(CO)CO)cc1` [FTY720, 2-amino-2-(4-octylphenethyl)propane-1,3-diol], for which the CC50 at 3 days in data set [4] is above 10 µM. Further, the EC50 in data set [2] (Hepatitis B virus, 72 h) was above 10 µM; in data set [3] (Hepatitis B virus, 72 h), above 10 µM.
The molecule `CCCc1cc(-c2nc(-c3ccc(C)cc3)cs2)ccn1` [Fatostatin, 2-(2-propylpyridin-4-yl)-4-(p-tolyl)thiazole] yielded a 50% cytotoxic concentration (CC50) at 3 days in data set [4] above 10 µM. In addition, the 50% effective concentration (EC50) in data set [2] (Hepatitis B virus, 72 h) was above 10 µM; in data set [3] (Hepatitis B virus, 72 h), above 10 µM.
Take `Cc1nn(C)c2nc(NNC(=O)Nc3cc(Cl)nc(Cl)c3)cc(C(C)C)c12` [JTE-013, N-(2,6-dichloropyridin-4-yl)-2-(4-isopropyl-1,3-dimethyl-1H-pyrazolo[3,4-b]pyridin-6-yl)hydrazine-1-carboxamide]: the CC50 in data set [1] was above 10 µM. Further, the EC50 in data set [2] (setting [5]) is above 10 µM; in data set [3] (setting [5]), 6.7 µM.
`C[C@H]1CCN1c1nc(N2C[C@@H]3[C@@H](CC(=O)O)[C@@H]3C2)cc(C(F)(F)F)n1` [KHK Inhibitor, 2-((1R,5S,6R)-3-(2-((S)-2-methylazetidin-1-yl)-6-(trifluoromethyl)pyrimidin-4-yl)-3-azabicyclo[3.1.0]hexan-6-yl)acetic acid]: the half-maximal effective concentration (EC50) in data set [2] (setting [5]) and in data set [3] (setting [5]) was above 10 µM throughout.
The molecule `CCOC(=O)c1ccc(CN(Cc2ccc(-c3cccc(S(C)(=O)=O)c3)cc2)S(=O)(=O)c2c(C)cc(C)cc2C)o1` [LXR Inverse Agonist, ethyl 5-(((2,4,6-trimethyl-N-((3'-(methylsulfonyl)-[1,1'-biphenyl]-4-yl)methyl)phenyl)sulfonamido)methyl)furan-2-carboxylate] came in with a CC50 in data set [1] above 10 µM. Further, the concentration giving a half-maximal response (EC50) in data set [2] (setting [5]) and in data set [3] (setting [5]) was above 10 µM each time.
In data set [4], `O=C(O)C[C@H]1CC[C@H](c2ccc(-c3ccc(Nc4ccc(C(F)(F)F)nc4)cn3)cc2)CC1` [Pradagilast, 2-((1r,4r)-4-(4-(5-((6-(trifluoromethyl)pyridin-3-yl)amino)pyridin-2-yl)phenyl)cyclohexyl)acetic acid] had a CC50 at 3 days above 10 µM. Moreover, the EC50 is above 10 µM in data set [2] (Hepatitis B virus, 72 h) and above 10 µM in data set [3] (Hepatitis B virus, 72 h).
In the case of `CCCCCCCCCCCCCCCCCCCC(=O)N[C@H]1CC[C@@]2(C)[C@@H](C1)C[C@@H](O)[C@@H]1[C@@H]2C[C@H](O)[C@]2(C)[C@@H]([C@H](C)CCC(=O)O)CC[C@@H]12` [SCD1 Inhibitor, (R)-4-((3S,5S,7R,8R,9S,10S,12S,13R,14S,17R)-7,12-dihydroxy-3-icosanamido-10,13-dimethylhexadecahydro-1H-cyclopenta[a]phenanthren-17-yl)pentanoic acid], in data set [1], the cytotoxic concentration (CC50) was above 10 µM. In addition, the concentration giving a half-maximal response (EC50) in data set [2] (setting [5]) and in data set [3] (setting [5]) was above 10 µM each time.
The molecule `CCN(CC)Cc1ccc(C(=O)N(CCc2ccccc2OC)[C@@H]2CCNC2)cc1` [SKI-1/S1P inhibitor, (R)-4-((diethylamino)methyl)-N-(2-methoxyphenethyl)-N-(pyrrolidin-3-yl)benzamide] came in with a CC50 in data set [1] above 10 µM. The EC50 in data set [2] (setting [5]) is above 10 µM; in data set [3] (setting [5]), 0.79 µM. Besides, in data set [3] (HBV-infected HepG2-NTCP cells), the “selectivity HBsAg versus HBeAg” value was “selective for HBsAg”. Further, in data set [3] (HBV-infected HepG2-NTCP cells), the “inhibition of HBsAg secretion” value is listed as “up to 80%”.
Consider `Oc1ccc(Nc2nc(-c3ccc(Cl)cc3)cs2)cc1` [SKI-II, 4-((4-(4-chlorophenyl)thiazol-2-yl)amino)phenol], for which the 50% cytotoxic concentration (CC50) at 3 days in data set [4] is above 10 µM. Moreover, the half-maximal effective concentration (EC50) in data set [2] (Hepatitis B virus, 72 h) is above 10 µM; in data set [3] (Hepatitis B virus, 72 h) it was 8.84 µM.
